From US20240239766A1, “3-AMINO PIPERIDYL SODIUM CHANNEL INHIBITORS” (Genentech, Inc., priority 2021, published 2024) come the findings set out here.

Molecules are shown by their SMILES. Where a name gives a salt, the structure may show the parent alone.

The target in this experiment is hNav1.7 (Homo sapiens (Human), UniProt Q15858). As to the kind of experiment: Patch voltage clamp electrophysiology assay (EP), Syncropatch 384PE, CHO cells expressing Nav1.7. Type of experiment: cell-based. As to conditions: holding potential −50 mV; 7.5 min compound incubation; read-out: EP SP hNav1.7 EVO (IC50). An excerpt: Example 101c: Electrophysiological Assay (EP) (In Vitro Assay)
Chain of hNav1.7 (Q15858 other isoform, or with tags, fused parts or gaps): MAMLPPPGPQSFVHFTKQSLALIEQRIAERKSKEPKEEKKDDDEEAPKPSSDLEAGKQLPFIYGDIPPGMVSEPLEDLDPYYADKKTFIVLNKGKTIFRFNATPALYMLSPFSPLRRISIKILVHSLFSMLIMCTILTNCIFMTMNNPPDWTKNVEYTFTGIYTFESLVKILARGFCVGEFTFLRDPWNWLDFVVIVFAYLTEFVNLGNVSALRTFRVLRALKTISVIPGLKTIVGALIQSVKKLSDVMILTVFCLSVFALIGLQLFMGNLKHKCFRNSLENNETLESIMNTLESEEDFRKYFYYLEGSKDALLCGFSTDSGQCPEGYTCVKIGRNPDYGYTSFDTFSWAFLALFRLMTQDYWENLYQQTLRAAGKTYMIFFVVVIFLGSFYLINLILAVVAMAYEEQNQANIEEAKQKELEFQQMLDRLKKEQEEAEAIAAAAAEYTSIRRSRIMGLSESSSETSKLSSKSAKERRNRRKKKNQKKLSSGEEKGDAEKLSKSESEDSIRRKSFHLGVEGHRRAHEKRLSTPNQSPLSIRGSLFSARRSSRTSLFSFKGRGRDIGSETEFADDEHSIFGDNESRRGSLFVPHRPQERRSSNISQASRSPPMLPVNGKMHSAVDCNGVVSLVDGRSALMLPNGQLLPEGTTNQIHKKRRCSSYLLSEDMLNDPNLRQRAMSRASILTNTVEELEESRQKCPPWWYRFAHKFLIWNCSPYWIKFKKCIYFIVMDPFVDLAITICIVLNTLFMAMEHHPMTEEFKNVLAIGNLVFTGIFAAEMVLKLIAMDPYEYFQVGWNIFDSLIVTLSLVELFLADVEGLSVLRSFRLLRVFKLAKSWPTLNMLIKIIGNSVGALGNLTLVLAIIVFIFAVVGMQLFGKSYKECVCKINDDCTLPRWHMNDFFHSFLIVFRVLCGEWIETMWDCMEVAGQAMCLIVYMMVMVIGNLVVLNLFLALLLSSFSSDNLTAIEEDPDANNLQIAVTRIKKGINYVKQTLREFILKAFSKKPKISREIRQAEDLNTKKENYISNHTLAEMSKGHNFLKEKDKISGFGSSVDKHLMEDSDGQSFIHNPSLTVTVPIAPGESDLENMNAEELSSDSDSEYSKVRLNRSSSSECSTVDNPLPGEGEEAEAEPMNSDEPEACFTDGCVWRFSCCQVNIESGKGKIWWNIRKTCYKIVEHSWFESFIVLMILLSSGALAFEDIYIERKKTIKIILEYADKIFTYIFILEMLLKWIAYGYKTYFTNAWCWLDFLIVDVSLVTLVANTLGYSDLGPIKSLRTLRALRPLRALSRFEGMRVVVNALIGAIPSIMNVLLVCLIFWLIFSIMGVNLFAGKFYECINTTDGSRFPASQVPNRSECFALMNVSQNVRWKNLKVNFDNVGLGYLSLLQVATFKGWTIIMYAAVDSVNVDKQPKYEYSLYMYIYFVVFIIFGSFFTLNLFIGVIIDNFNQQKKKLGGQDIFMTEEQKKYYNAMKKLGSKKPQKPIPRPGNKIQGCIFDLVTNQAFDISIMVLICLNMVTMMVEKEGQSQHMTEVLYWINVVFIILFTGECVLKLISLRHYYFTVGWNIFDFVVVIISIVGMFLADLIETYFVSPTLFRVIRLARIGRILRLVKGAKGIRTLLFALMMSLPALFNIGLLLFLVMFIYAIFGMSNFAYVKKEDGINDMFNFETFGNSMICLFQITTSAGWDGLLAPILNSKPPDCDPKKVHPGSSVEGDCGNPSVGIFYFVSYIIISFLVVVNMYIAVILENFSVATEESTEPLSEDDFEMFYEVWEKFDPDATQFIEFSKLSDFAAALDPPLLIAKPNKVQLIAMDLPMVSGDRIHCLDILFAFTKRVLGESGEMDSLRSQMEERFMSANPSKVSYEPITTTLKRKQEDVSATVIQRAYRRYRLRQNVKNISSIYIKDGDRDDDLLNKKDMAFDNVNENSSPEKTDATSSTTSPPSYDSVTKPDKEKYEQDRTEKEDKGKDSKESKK
Patch voltage clamp electrophysiology allows for the direct measurement and quantification of block of voltage-gated sodium channels (NaV's), and allows the determination of the time- and voltage-dependence of block which has been interpreted as differential binding to the resting, open, and inactivated states of the sodium channel (Hille, B., Journal of General Physiology (1977), 69: 497-515).
The following voltage clamp electrophysiology studies are performed on representative compounds using cells heterologously expressing Nav1.7 or Nav1.5 channels. cDNAsfor Nav1.7 (NM_002977) and Nav1.5 (AC137587) are stably expressed in Chinese Hamstr Ovary (CHO) cells and CHL (Chinese Hamster Lung) cells respectively. Sodium currents are measured in the whole-cell configuration using Syncropatch 384PE (Nanlon Technologies, Germany). 1NPC®-384 chips with custom medium resistance and single hole mode are used. Internal solution consists of (in mM): […], 10 CsCl, 20 EGTA, and 10 Hepes (pH adjusted to 7.2); and external solution contains (in mM): 60 NMDG, 80 NaCl, 4 KCl, 1 MgCl2, 2 CaCl2), 2 D-Glucose monohydrate, 10 Hepes (pH adjusted to 7.4 with NaOH).
After system flushing, testing compounds are dissolved in external solution containing 0.1% Pluronic F-127. The chip is moved into the measuring head and the instrument primes the chip with external and internal solutions. 10 μl cells are added to the chip from a cell hotel, and a negative pressure of −50 mBar is applied to form a seal. Following treatment with seal enhancer solution and wash-off with external solution, negative pressure of −250 mbar is applied for 1 second to achieve the whole-cell configuration, followed by three washing steps in external solution. 20 μl of compounds is added to 40 μl in each well (1:3 dilution of compounds), and after mixing, 20 μl is removed so the volume is retained at 40 ul. After approximately 13 minutes recordings, 20 μl/well of 2 uM TTX, or 333 uM Tetracaine (for Nav1.5) is added to achieve full block.
For voltage protocol, an holding potential of −50 mV is applied during the whole experiment. A depolarizing step is applied to −10 mV for 10 ms, followed by a hyperpolarization step to −150 mV for 20 ms to allow channel recovery from inactivation. A second depolarizing step is applied from −150 mV to −10 mV for 10 ms, where currents are measured to derive blocking effects of compounds. Inhibition is determined based on 7.5 min of compound incubation.
For orientation: In patch-clamp work, channel activity is measured electrically.
As a reminder, the IC50 is the midpoint of a concentration-inhibition curve. Consider `CN(C)[C@]1(CCc2cccc(C(F)(F)F)c2)CCCN(c2ccc(S(=O)(=O)Nc3ccncn3)c(F)c2)C1` (single isomer, unassigned) [Example 1], for which the IC50 is 0.00688 µM.

On to `CN(C)[C@@]1(CCc2cccc(C(F)(F)F)c2)CCCN(c2ccc(S(=O)(=O)Nc3ccncn3)c(F)c2)C1` (single isomer, unassigned) [Example 2, formate], for which the IC50 is 0.601 µM. For the compound `CN[C@@]1(CCc2cccc(C(F)(F)F)c2)CCCN(c2ccc(S(=O)(=O)Nc3ccncn3)c(F)c2)C1` (single isomer, unassigned) [Example 4], the IC50 came out at 0.638 µM.

As to `CN(C)[C@@]1(CCc2ccccc2)CCCN(c2ccc(S(=O)(=O)Nc3ccncn3)c(F)c2)C1` (single isomer, unassigned) [Example 5], the IC50 is 10 µM. On to `CN(C)[C@]1(CCc2ccccc2)CCCN(c2ccc(S(=O)(=O)Nc3ccncn3)c(F)c2)C1` (single isomer, unassigned) [Example 6], for which the 50% inhibitory concentration (IC50) worked out at 0.0489 µM.

Take `CN(C)[C@@]1(CCc2ccc(C(F)(F)F)cc2)CCCN(c2ccc(S(=O)(=O)Nc3ccncn3)c(F)c2)C1` (single isomer, unassigned) [Example 7]: the IC50 is 0.0124 µM. Take `CN(C)[C@]1(CCc2ccc(C(F)(F)F)cc2)CCCN(c2ccc(S(=O)(=O)Nc3ccncn3)c(F)c2)C1` (single isomer, unassigned) [Example 8]: the IC50 amounted to 2.07 µM. Turning to `CN(C)[C@@]1(CCc2cccc(C(F)(F)F)c2)CCCN(c2cc(F)c(S(=O)(=O)Nc3ccncn3)cc2Cl)C1` (single isomer, unassigned) [Example 11], the IC50 was 0.742 µM. Turning to `CN(C)[C@]1(CCc2cccc(C(F)(F)F)c2)CCCN(c2cc(F)c(S(=O)(=O)Nc3ccncn3)cc2Cl)C1` (single isomer, unassigned) [Example 12], the IC50 amounted to 0.0515 µM. The value for `CN(C)[C@@]1(CCc2cccc(C(F)(F)F)c2)CCCN(c2ccc(S(=O)(=O)Nc3nccs3)c(F)c2)C1` (single isomer, unassigned) [Example 13] was 0.00153 µM.

With `CN(C)[C@]1(CCc2cccc(C(F)(F)F)c2)CCCN(c2ccc(S(=O)(=O)Nc3nccs3)c(F)c2)C1` (single isomer, unassigned) [Example 14], the IC50 is 0.0587 µM. On to `CN(C)[C@@]1(CCc2cccc(C(F)(F)F)c2)CCCN(c2cc(F)c(S(=O)(=O)Nc3ccncn3)c(F)c2)C1` (single isomer, unassigned) [Example 15], for which the IC50 turned out to be 0.288 µM. The value for `CN(C)[C@]1(CCc2cccc(C(F)(F)F)c2)CCCN(c2cc(F)c(S(=O)(=O)Nc3ccncn3)c(F)c2)C1` (single isomer, unassigned) [Example 16] was 0.00141 µM; that for `CN(C)[C@@]1(CCc2cccc(C(F)(F)F)c2)CCCN(c2cc(F)c(S(=O)(=O)Nc3ccncn3)c(Cl)c2)C1` (single isomer, unassigned) [Example 17] was 0.314 µM; that for `CN(C)[C@]1(CCc2cccc(C(F)(F)F)c2)CCCN(c2cc(F)c(S(=O)(=O)Nc3ccncn3)c(Cl)c2)C1` (single isomer, unassigned) [Example 18] was 0.00183 µM.

As to `CN(C)[C@@]1(CCc2ccc(Cl)c(C(F)(F)F)c2)CCCN(c2ccc(S(=O)(=O)Nc3ccncn3)c(F)c2)C1` (single isomer, unassigned) [Example 19], the IC50 stood at 0.0604 µM. The value for `CN(C)[C@]1(CCc2ccc(Cl)c(C(F)(F)F)c2)CCCN(c2ccc(S(=O)(=O)Nc3ccncn3)c(F)c2)C1` (single isomer, unassigned) [Example 20, formate] was 0.00274 µM; that for `O=S(=O)(Nc1ccncn1)c1ccc(N2CCC[C@](CCc3cccc(C(F)(F)F)c3)(N3CCC3)C2)cc1F` (single isomer, unassigned) [Example 21] was 3.18 µM; that for `O=S(=O)(Nc1ccncn1)c1ccc(N2CCC[C@@](CCc3cccc(C(F)(F)F)c3)(N3CCC3)C2)cc1F` (single isomer, unassigned) [Example 22] was 0.0844 µM. The value for `O=S(=O)(Nc1ccncn1)c1ccc(N2CCC[C@](CCc3cccc(C(F)(F)F)c3)(N3CCCC3)C2)cc1F` (single isomer, unassigned) [Example 23] was 0.00862 µM. With `O=S(=O)(Nc1ccncn1)c1ccc(N2CCC[C@@](CCc3cccc(C(F)(F)F)c3)(N3CCCC3)C2)cc1F` (single isomer, unassigned) [Example 24], the IC50 is 0.439 µM. The value for `O=S(=O)(Nc1ccncn1)c1ccc(N2CCC[C@](CCc3cccc(C(F)(F)F)c3)(N3CCCCC3)C2)cc1F` (single isomer, unassigned) [Example 25, formate] was 0.312 µM; that for `O=S(=O)(Nc1ccncn1)c1ccc(N2CCC[C@@](CCc3cccc(C(F)(F)F)c3)(N3CCCCC3)C2)cc1F` (single isomer, unassigned) [Example 26, formate] was 0.0195 µM. In the case of `CN(C)CCN(C)[C@@]1(CCc2cccc(C(F)(F)F)c2)CCCN(c2ccc(S(=O)(=O)Nc3ccncn3)c(F)c2)C1` (single isomer, unassigned) [Example 27, formate] it was 2.15 µM. With `CN(C)CCN(C)[C@]1(CCc2cccc(C(F)(F)F)c2)CCCN(c2ccc(S(=O)(=O)Nc3ccncn3)c(F)c2)C1` (single isomer, unassigned) [Example 28, formate], the IC50 turned out to be 0.00808 µM. The value for `CN1CC(CN(C)[C@@]2(CCc3cccc(C(F)(F)F)c3)CCCN(c3ccc(S(=O)(=O)Nc4ccncn4)c(F)c3)C2)C1` (single isomer, unassigned) [Example 29] was 0.00266 µM; that for `CN1CC(CN(C)[C@]2(CCc3cccc(C(F)(F)F)c3)CCCN(c3ccc(S(=O)(=O)Nc4ccncn4)c(F)c3)C2)C1` (single isomer, unassigned) [Example 30, formate] was 0.0135 µM. In the case of `CN(C)[C@@]1(CCc2cc(C(F)(F)F)ccc2Cl)CCCN(c2cc(F)c(S(=O)(=O)Nc3ccncn3)c(F)c2)C1` (single isomer, unassigned) [Example 32] it was 0.425 µM.

Take `CN(C)[C@]1(CCc2cc(C(F)(F)F)ccc2Cl)CCCN(c2cc(F)c(S(=O)(=O)Nc3ccncn3)c(F)c2)C1` (single isomer, unassigned) [Example 33, formate]: the IC50 came to 0.00189 µM.

Take `CN1CC(N(C)[C@@]2(CCc3cccc(C(F)(F)F)c3)CCCN(c3ccc(S(=O)(=O)Nc4ccncn4)c(F)c3)C2)C1` (single isomer, unassigned) [Example 34]: the concentration for half-maximal inhibition (IC50) amounted to 0.00182 µM. As to `CN1CCC(N(C)[C@@]2(CCc3cccc(C(F)(F)F)c3)CCCN(c3ccc(S(=O)(=O)Nc4ccncn4)c(F)c3)C2)CC1` (single isomer, unassigned) [Example 36], the IC50 was determined as 2.69 µM. In the case of `CN1CCC(N(C)[C@]2(CCc3cccc(C(F)(F)F)c3)CCCN(c3ccc(S(=O)(=O)Nc4ccncn4)c(F)c3)C2)CC1` (single isomer, unassigned) [Example 37, formate] it was 0.00722 µM; in that of `CN(C)[C@@]1(CCc2cccc(C(F)(F)F)c2)CCCN(c2cc(F)c(S(=O)(=O)Nc3ccncn3)cc2F)C1` (single isomer, unassigned) [Example 38], 0.0288 µM. As to `CN(C)[C@]1(CCc2cccc(C(F)(F)F)c2)CCCN(c2cc(F)c(S(=O)(=O)Nc3ccncn3)cc2F)C1` (single isomer, unassigned) [Example 39], the IC50 came to 9.11 µM. Take `CN(C)[C@]1(CCc2cccc(C(F)(F)F)c2Cl)CCCN(c2cc(F)c(S(=O)(=O)Nc3ccncn3)c(F)c2)C1` (single isomer, unassigned) [Example 41]: the IC50 was found to be 0.00107 µM. On to `CN(C)[C@@]1(CCc2cc(Cl)cc(C(F)(F)F)c2)CCCN(c2cc(F)c(S(=O)(=O)Nc3ccncn3)c(F)c2)C1` (single isomer, unassigned) [Example 42], for which the IC50 was 0.052 µM. On to `CN1CC[C@@H](N(C)[C@@]2(CCc3cccc(C(F)(F)F)c3)CCCN(c3cc(F)c(S(=O)(=O)Nc4ccncn4)c(F)c3)C2)C1` (single isomer, unassigned) [Example 44], for which the IC50 was 0.195 µM. Turning to `CN1CC[C@H](N(C)[C@@]2(CCc3cccc(C(F)(F)F)c3)CCCN(c3cc(F)c(S(=O)(=O)Nc4ccncn4)c(F)c3)C2)C1` (single isomer, unassigned) [Example 45], the concentration for half-maximal inhibition (IC50) worked out at 0.00169 µM. The value for `CN(C)[C@@]1(CCc2ccc(C(F)(F)F)c(Cl)c2)CCCN(c2cc(F)c(S(=O)(=O)Nc3ccncn3)c(F)c2)C1` (single isomer, unassigned) [Example 50] was 0.504 µM.
